Test results as given in patent US9873709B2 (priority 2013, dated 2018).
Structures can show the parent of a compound that is named as a salt. Where two headings read alike, the source gives them in different places.

Columns and labels:
[1] = test system: JAK1-dependent STAT6 phosphorylation downstream of IL-13 stimulation in TF-1 human erythroleukemia cells; test: cells; details: TF-1, read-out: IL-13-pSTAT6 IC50
[2] = molecular target: isolated recombinant JAK2 kinase domain (Homo sapiens (Human), UniProt O60674); test: biochemical
[3] = test system: JAK1-dependent STAT6 phosphorylation downstream of IL-13 stimulation in BEAS-2B human bronchial epithelial cells; test: cells; details: read-out: IL13-pSTAT6 BEASB2B IC50
Protocol: Inhibitor potency (EC50) was determined in cell-based assays designed to measure JAK1 dependent STAT phosphorylation.
Prior to use in the assays, TF-1 cells were starved of GM-CSF overnight in OptiMEM medium (Life Technologies, Grand Island, N.Y.) supplemented with 0.5% charcoal/dextran stripped fetal bovine serum (FBS), 0.1 mM non-essential amino acids (NEAA), and 1 mM sodium pyruvate. The assays were run in 384-well plates in serum-free OptiMEM medium using 300,000 cells per well. In a second assay approach, BEAS-2B human bronchial epithelial cells obtained from ATCC were plated at 100,000 cells per well of a 96-well plate one day prior to the experiment. The BEAS-2B assay was run in complete growth medium (bronchial epithelial basal medium plus bulletkit; Lonza; Basel, Switzerland).
Test compounds were serially diluted 1:2 in DMSO and then diluted 1:50 in medium just before use. Diluted compounds were added to the cells, for a final DMSO concentration of 0.2%, and incubated for 30 min (for the TF-1 assay) or 1 hr (for the BEAS-2B assay) at 37° C. Then, cells were stimulated with human recombinant cytokine at their respective EC90 concentrations, as previously determined for each individual lot. […] The resultant samples were frozen in the plates at −80° C. Compound mediated inhibition of STAT6 phosphorylation was measured in the cell lysates using MesoScale Discovery (MSD) technology (Gaithersburg, Md.).

[4] = test system: JAK1-dependent STAT6 phosphorylation downstream of IL-13 stimulation in TF-1 human erythroleukemia cells; details: read-out: IL-13-pSTAT6 IC50, TF-1 cells

isolated recombinant JAK2 kinase domain, sequence (O60674 849-1124): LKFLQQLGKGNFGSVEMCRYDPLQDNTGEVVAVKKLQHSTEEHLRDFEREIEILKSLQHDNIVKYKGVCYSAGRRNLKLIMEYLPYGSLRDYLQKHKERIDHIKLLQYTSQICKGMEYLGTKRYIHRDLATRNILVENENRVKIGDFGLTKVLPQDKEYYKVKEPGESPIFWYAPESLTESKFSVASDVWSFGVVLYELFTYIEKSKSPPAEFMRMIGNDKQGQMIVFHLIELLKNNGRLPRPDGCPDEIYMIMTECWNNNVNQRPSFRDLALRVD

| Structure (SMILES) | IC50 [1] [nM] | Ki [2] [nM] | IC50 [3] [nM] | IC50 [4] [nM] |
| --- | --- | --- | --- | --- |
| CN1CCC(N(C)C(=O)c2ccc(Nc3nc4c(N5CCN(c6ccccc6)CC5)cccn4n3)cc2)CC1 [Example 1-13, N-methyl-N-(1-methyl-4-piperidyl)-4-[[8-(4-phenylpiperazin-1-yl)-[1,2,4]triazolo[1,5-a]pyridin-2-yl]amino]benzamide] | 494 | 13.1 | – | – |
| O=C(c1ccc(Nc2nc3c(N4CCC(O)(c5ccc(Cl)cc5)CC4)cccn3n2)cc1)N1CCNCC1 [Example 1-177, [4-[[8-[4-(4-chlorophenyl)-4-hydroxy-1-piperidyl]-[1,2,4]triazolo[1,5-a]pyridin-2-yl]amino]phenyl]-piperazin-1-yl-methanone] | 23.2 | 1.51 | – | – |
| CN1CCC(N(C)C(=O)c2ccc(Nc3nc4c(N5C[C@@H]6C[C@](O)(c7ccccc7)C[C@@H]6C5)cccn4n3)cc2)CC1 [Example 1-292] | – | 18.5 | – | – |
| CN1CCC(N(C)C(=O)c2ccc(Nc3nc4c(N5CCC(O)(c6ccc(F)cc6)CC5)cccn4n3)cc2)CC1 [Example 1-37, 4-[[8-[4-(4-fluorophenyl)-4-hydroxy-1-piperidyl]-[1,2,4]triazolo[1,5-a]pyridin-2-yl]amino]-N-methyl-N-(1-methyl-4-piperidyl)benzamide] | 76.3 | 6.7 | – | – |
| CC(C)c1ccc(C2(O)CCN(c3cccn4nc(Nc5ccc(C(=O)N(C)C6CCN(C)CC6)cc5)nc34)CC2)cc1 [Example 1-38, 4-[[8-[4-hydroxy-4-(4-isopropylphenyl)-1-piperidyl]-[1,2,4]triazolo[1,5-a]pyridin-2-yl]amino]-N-methyl-N-(1-methyl-4-piperidyl)benzamide] | 152 | 5.59 | – | – |
| CNC1CN(C(=O)c2ccc(Nc3nc4c(N5CCC(CO)(c6ccc(Cl)cc6)CC5)cccn4n3)cc2)C1 [Example 1-283, [4-[[8-[4-(4-chlorophenyl)-4-(hydroxymethyl)-1-piperidyl]-[1,2,4]triazolo[1,5-a]pyridin-2-yl]amino]phenyl]-[3-(methylamino)azetidin-1-yl]methanone] | 15.5 | 0.15 | 31.3 | – |
| CC(=O)NC1CCN(c2cccn3nc(Nc4ccc(C(=O)N(C)C5CCN(C)CC5)cc4)nc23)CC1 [Example 1-9, 4-[[8-(4-acetamido-1-piperidyl)-[1,2,4]triazolo[1,5-a]pyridin-2-yl]amino]-N-methyl-N-(1-methyl-4-piperidyl)benzamide; hydrochloride] | – | 63.2 | – | – |
| CN1CCC(N(C)C(=O)c2ccc(Nc3nc4c(C5=CCN(C(=O)C6CCC(C#N)CC6)CC5)cccn4n3)cc2)CC1 (centres unmarked) [Example 2-285, 4-[[8-[1-(4-cyanocyclohexanecarbonyl)-3,6-dihydro-2H-pyridin-4-yl]-[1,2,4]triazolo[1,5-a]pyridin-2-yl]amino]-N-methyl-N-(1-methyl-4-piperidyl)benzamide] | – | – | – | 739 |
| CNC(=O)C1CN(C(C)C)CCN1C(=O)c1ccc(Nc2nc3c(C4=CCN(C(=O)CCC(F)(F)F)CC4)cccn3n2)cc1 (centres unmarked) [Example 2-327, 4-isopropyl-N-methyl-1-[4-[[8-[1-(4,4,4-trifluorobutanoyl)-3,6-dihydro-2H-pyridin-4-yl]-[1,2,4]triazolo[1,5-a]pyridin-2-yl]amino]benzoyl] piperazine-2-carboxamide] | – | – | – | 19.9 |
| CN1CCC(N(C)C(=O)c2ccc(Nc3nc4c(N5CCCCC5)cccn4n3)cc2)CC1 [Example 1-12, N-methyl-N-(1-methyl-4-piperidyl)-4-[[8-(1-piperidyl)-[1,2,4]triazolo[1,5-a]pyridin-2-yl]amino]benzamide; dihydrochloride] | 3400 | 77.5 | – | – |
| CC(=O)N1CCN(c2cccn3nc(Nc4ccc(C(=O)N(C)C5CCN(C)CC5)cc4)nc23)CC1 [Example 1-10, 4-[[8-(4-acetylpiperazin-1-yl)-[1,2,4]triazolo[1,5-a]pyridin-2-yl]amino]-N-methyl-N-(1-methyl-4-piperidyl)benzamide] | > 10000 | 74.7 | – | – |
| NCCNC(=O)c1ccc(Nc2nc3c(N4CCC(O)(c5ccc(Cl)cc5)CC4)cccn3n2)cc1 [Example 1-175, N-(2-aminoethyl)-4-[[8-[4-(4-chlorophenyl)-4-hydroxy-1-piperidyl]-[1,2,4]triazolo[1,5-a]pyridin-2-yl]amino]benzamide] | 189 | 0.92 | – | – |
| CN1CCC(N(C)C(=O)c2ccc(Nc3nc4c(N5CCC(C#N)CC5)cccn4n3)cc2)CC1 [Example 1-11, 4-[[8-(4-cyano-1-piperidyl)-[1,2,4]triazolo[1,5-a]pyridin-2-yl]amino]-N-methyl-N-(1-methyl-4-piperidyl)benzamide] | 235 | 6.28 | – | – |
